Assay results taken from PubChem BioAssay (NCI).
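Grown in 96-well plates, cells were treated for 48 hours with each compound at five concentrations. Insufficient inhibition: endpoint recorded as highest concentration tested. TGI is the concentration that stops growth completely.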 *1 amine or outer side, *2 acyl side, *3 side chain or, on linkers, in order; H or OH if unused. Where a SMILES comes first, the peptide text is derived from it. [ ]: non-standard residue; d: D form. The star is where a group is joined. X31 = CC(=O)N(C)SCC(N[*:1])C(=O)[*:2]; X47 = CC(=O)N(C)SCC(N*)/C(O)=N\O; Cbz = O=C(OCc1ccccc1)*; Bn = c1ccc(C*)cc1; For = O=C*

How the values were obtained:
Assay in all cases: inhibition of tumour cell growth, NCI panel, 48 h
OVCAR-4 ovarian = system: OVCAR-4 ovarian
TK-10 renal = system: TK-10 renal
MDA-N = system: MDA-N
EKVX NSCLC = system: EKVX NSCLC
HOP-92 NSCLC = system: HOP-92 NSCLC
HCC-2998 colon = system: HCC-2998 colon
A549 NSCLC = system: A549 NSCLC
OVCAR-5 ovarian = system: OVCAR-5 ovarian
HT29 colon = system: HT29 colon
LOX IMVI melanoma = system: LOX IMVI melanoma

Structure (SMILES): CC(=O)OC1=c2ccccc2=C(O)C2C1C=NN2C(C)=O (stereo not given)
- TGI (OVCAR-4 ovarian): > 100 µM
- TGI (TK-10 renal): > 100 µM
- TGI (MDA-N): > 100 µM
- TGI (EKVX NSCLC): > 100 µM
- TGI (HOP-92 NSCLC): > 100 µM
- TGI (HCC-2998 colon): > 100 µM
- TGI (A549 NSCLC): > 100 µM
- TGI (OVCAR-5 ovarian): > 100 µM
- TGI (HT29 colon): > 100 µM
- TGI (LOX IMVI melanoma): > 100 µM

Structure (SMILES): CC(=O)N(C)SCC(NC(=O)C(Cc1ccccc1)NC(=O)OCc1ccccc1)C(=O)NC(Cc1ccccc1)C(=O)NC(Cc1cn(C=O)c2ccccc12)C(=O)NC(CCCCNC(=O)OCc1ccccc1)C(=O)NC(C(=O)NC(CSN(C)C(C)=O)/C(O)=N\O)C(C)OCc1ccccc1 (stereo not given) (Cbz-F[X31]FW(For)K(Cbz)T(Bn)-X47; configuration not given here)
- TGI (OVCAR-4 ovarian): > 100 µM
- TGI (TK-10 renal): > 100 µM
- TGI (MDA-N): > 100 µM
- TGI (EKVX NSCLC): > 100 µM
- TGI (HOP-92 NSCLC): > 100 µM
- TGI (HCC-2998 colon): > 100 µM
- TGI (A549 NSCLC): > 100 µM
- TGI (OVCAR-5 ovarian): > 100 µM
- TGI (HT29 colon): > 100 µM
- TGI (LOX IMVI melanoma): > 100 µM

Structure (SMILES): COc1cc(Cc2cc3c(c(C(=O)O)c2Br)OCO3)cc(OC)c1OC
- TGI (OVCAR-4 ovarian): > 100 µM
- TGI (TK-10 renal): > 100 µM
- TGI (MDA-N): 67 µM
- TGI (EKVX NSCLC): > 100 µM
- TGI (HOP-92 NSCLC): > 100 µM
- TGI (HCC-2998 colon): > 100 µM
- TGI (A549 NSCLC): > 100 µM
- TGI (OVCAR-5 ovarian): > 100 µM
- TGI (HT29 colon): > 100 µM
- TGI (LOX IMVI melanoma): > 100 µM

Structure (SMILES): CCC(C#N)(c1ccccc1)N(CCc1ccccc1)C(=O)c1ccccc1 (stereo not given)
- TGI (OVCAR-4 ovarian): 44 µM
- TGI (TK-10 renal): > 100 µM
- TGI (MDA-N): > 100 µM
- TGI (EKVX NSCLC): > 100 µM
- TGI (HOP-92 NSCLC): 45.2 µM
- TGI (HCC-2998 colon): > 100 µM
- TGI (A549 NSCLC): > 100 µM
- TGI (OVCAR-5 ovarian): > 100 µM
- TGI (HT29 colon): > 100 µM
- TGI (LOX IMVI melanoma): > 100 µM

Structure (SMILES): COc1cc(C2SCC(=O)N2c2cc(Cl)c(Cl)cc2Cl)cc(OC)c1OC (stereo not given)
- TGI (OVCAR-4 ovarian): > 100 µM
- TGI (TK-10 renal): > 100 µM
- TGI (MDA-N): 95.4 µM
- TGI (EKVX NSCLC): > 100 µM
- TGI (HOP-92 NSCLC): > 100 µM
- TGI (HCC-2998 colon): > 100 µM
- TGI (A549 NSCLC): > 100 µM
- TGI (OVCAR-5 ovarian): > 100 µM
- TGI (HT29 colon): > 100 µM
- TGI (LOX IMVI melanoma): > 100 µM

Structure (SMILES): NNC(=O)CSc1nc2ccc(I)cc2c(=O)n1Cc1ccccc1
- TGI (OVCAR-4 ovarian): 71.2 µM
- TGI (TK-10 renal): 38.7 µM
- TGI (MDA-N): > 100 µM
- TGI (EKVX NSCLC): 33.2 µM
- TGI (HOP-92 NSCLC): 57 µM
- TGI (HCC-2998 colon): 55.6 µM
- TGI (A549 NSCLC): 54.6 µM
- TGI (OVCAR-5 ovarian): 40.9 µM
- TGI (HT29 colon): 44.8 µM
- TGI (LOX IMVI melanoma): > 100 µM

Structure (SMILES): CN(C)C(Cc1cnc[nH]1)C(=O)N1CCCC1C(N)=O (stereo not given)
- TGI (OVCAR-4 ovarian): > 100 µM
- TGI (TK-10 renal): > 100 µM
- TGI (MDA-N): > 100 µM
- TGI (EKVX NSCLC): > 100 µM
- TGI (HOP-92 NSCLC): > 100 µM
- TGI (HCC-2998 colon): > 100 µM
- TGI (A549 NSCLC): > 100 µM
- TGI (OVCAR-5 ovarian): > 100 µM
- TGI (HT29 colon): > 100 µM
- TGI (LOX IMVI melanoma): > 100 µM

Structure (SMILES): Brc1ccc2[nH]cc(-c3csc(-c4ccccn4)n3)c2c1
- TGI (OVCAR-4 ovarian): > 92.8 µM
- TGI (TK-10 renal): > 100 µM
- TGI (MDA-N): > 100 µM
- TGI (EKVX NSCLC): 48.2 µM
- TGI (HOP-92 NSCLC): > 95.8 µM
- TGI (HCC-2998 colon): 31 µM
- TGI (A549 NSCLC): > 70.3 µM
- TGI (OVCAR-5 ovarian): > 100 µM
- TGI (HT29 colon): 38.7 µM
- TGI (LOX IMVI melanoma): 33.2 µM

Structure (SMILES): CC(=N\N)/C(C)=N/N=C(C)/C(C)=N/N=C(C)/C(C)=N/N=C(C)/C(C)=N/N
- TGI (OVCAR-4 ovarian): > 100 µM
- TGI (TK-10 renal): > 100 µM
- TGI (MDA-N): > 100 µM
- TGI (EKVX NSCLC): > 100 µM
- TGI (HOP-92 NSCLC): > 100 µM
- TGI (HCC-2998 colon): > 100 µM
- TGI (A549 NSCLC): > 100 µM
- TGI (OVCAR-5 ovarian): > 100 µM
- TGI (HT29 colon): > 100 µM
- TGI (LOX IMVI melanoma): > 100 µM
